In patent US20250099412A1, “METHOD OF INHIBITING DEGRADING PROTEASE ACTIVITY IN AGING” (The Regents of the University of California, priority 2022, published 2025):

Experiments:
mucin = assay: Mucin-containing mucus layer of small intestine stained with alcian blue; assay type: in vivo, rat; settings: old rats (100 weeks), two-week oral treatment; compared with old and young rats; FIG. 3B
From the text: (§1) Male Wistar rats (Harlan Sprague Dawley Inc., Indianapolis, IN) at maturity (4 months, 300 to 350 gm) and old age (24 months, 375 to 450 gm) were included in the study. The animals were maintained on standard laboratory chow (8604 Teklad rodent diet; Harlan Laboratories, Indianapolis, IN) without restriction and water ad libitum and maintained in separated room without pathogen-free conditions. […] A subgroup of old animals was given a serine protease inhibitor (tranexamic acid, 14 days) in drinking water (137 mM, exchanged daily) which at a minimum fluid consumption of 40 ml/day amounts to a minimum dose of 0.39 gm/kg/day for 350 gm body weight (BW). […]
(§2) Images of the immunolabel density were recorded at different magnifications, from relatively low power overviews of the tissue (10× objective, numerical aperture 0.25) to higher magnification of single cells (at 60× oil immersion objective, numerical aperture 1.4). The images were recorded under standard light conditions under fixed settings of the substage condenser with a digital camera (Spot Insight GIGABIT camera, Sterling Height), so that the camera serves as a quantitative light intensity meter. Images were analyzed on a laboratory computer to minimize operator error (NIH Image, 1.61, public domain software, spatial resolution of 640×480 pixel). […]

amylase = assay: Amylase staining of epithelial cells of the small intestine; assay type: in vivo, rat; settings: old rats (100 weeks), oral treatment for two weeks; compared with old and young rats; FIG. 3B
From the text: (§3) Male Wistar rats (Harlan Sprague Dawley Inc., Indianapolis, IN) at maturity (4 months, 300 to 350 gm) and old age (24 months, 375 to 450 gm) were included in the study. The animals were maintained on standard laboratory chow (8604 Teklad rodent diet; Harlan Laboratories, Indianapolis, IN) without restriction and water ad libitum and maintained in separated room without pathogen-free conditions. […] A subgroup of old animals was given a serine protease inhibitor (tranexamic acid, 14 days) in drinking water (137 mM, exchanged daily) which at a minimum fluid consumption of 40 ml/day amounts to a minimum dose of 0.39 gm/kg/day for 350 gm body weight (BW).

collagen = assay: Collagen fragment labeling with biotin conjugated collagen hybridizing peptides (B-CHP); assay type: in vivo, rat; settings: old rats (100 weeks), two-week oral treatment, compared with old and young (16 weeks) rats
From the text: as §1
Tissue sections were stained with B-CHP (stock solution, 150 mM; final applied solution 7.5. mM). […] The B-CHP label intensity on the sections was recorded by digital microscopy.
as §2, with “meter.” for “meter. Images were analyzed on a laboratory computer to minimize operator error (NIH Image, 1.61, public domain software, spatial resolution of 640×480 pixel).”

pancreatic trypsin = assay: Pancreatic trypsin immunohistochemistry on rat tissue sections (young, old, old-treated); assay type: in vivo; settings: old rats (100 weeks), compared with old and young (16 weeks) rats
From the text: as §3
A femoral venous catheter was placed after general anesthesia (pentobarbital sodium, 50 mg/kg [Abbott Laboratories, North Chicago, IL], intramuscularly after local anesthesia with 2% lidocaine HCl [Hospira, Inc, Lake Forrest, IL]). […]
To determine on the tissue sections the immunolabel density and distribution of serine proteases, pancreatic trypsin MoAb (D-1): sc-137077 (Santa Cruz) primary antibody was used, followed by secondary antibodies (MP-7601 for anti-rabbit IgG; MP-7602 for anti-mouse IgG; ImmPRESS Excel staining kit peroxidase). […] No counterstain was applied to facilitate quantitative label intensity measurements and since cellular and vascular structures are readily identified. […] All procedures were carried out under standardized conditions to permit quantitative comparison of label densities.
Small intestine: Full thickness tissue blocks of the wall of proximal jejunum (3 by 5 mm) were fixed from all sides in 10% formaldehyde. Serine proteases were detected with primary and secondary antibodies labeled with DAB (Peroxidase Substrate Kit, ab64238, ABCAM).
Images of the immunolabel density were recorded at different magnifications, from relatively low power overviews of the tissue (10× objective, numerical aperture 0.25) to higher magnification of single cells (at 60× oil immersion objective, numerical aperture 1.4). […]

In the case of `NC[C@H]1CC[C@H](C(=O)O)CC1` [tranexamic acid], the “mucin label density in villi of small intestine” value (mucin) is reported as “partially restored”, the “increase in amylase in the small intestine of old rats” value (amylase) is reported as “attenuated” and the “collagen fragmentation in cardiac muscle” value (collagen; FIG. 1B) is reported as “reduces collagen fragmentation in cardiac muscle in old-treated rats below levels seen in old rats to levels similar to those seen in young rats”. For the same compound, the “collagen fragmentation in brain” value (collagen; FIG. 2B) was “reduces collagen fragmentation in rat brain in old-treated rats below levels seen in old rats to levels similar to those seen in young rats”, the “pancreatic trypsin accumulation in cardiac muscle” value (pancreatic trypsin; two-week oral treatment (137 mM in drinking water), FIG. 1A) was “reduces pancreatic trypsin accumulation” and the “pancreatic trypsin accumulation in brain” value (pancreatic trypsin; two-week oral treatment, FIG. 2A) was “reduces pancreatic trypsin accumulation”. For the same compound, the “pancreatic trypsin accumulation in intestine” value (pancreatic trypsin; two-week oral treatment, FIG. 3A) was “reduces pancreatic trypsin accumulation in old rats (100 weeks) to similar levels seen in young rats”.
